Positions of bridges follow the written chain, without caps; N, C: chain ends. Residues, ends and D or L forms follow the SMILES beside them. No end group written: not given here.

The first test deals with C. albicans.
Assay: not given
Conditions: against C. albicans; cited from earlier work.
On to histatin-5 [Peptide H-5], for which the “minimum inhibitory concentration (MIC)” value is 10 µg/mL.

In another test the test system is S. cerevisiae. Kind of test: fungistatic MIC assay in antifungal agar. The format is cell-based. Conditions: S. cerevisiae, minimum concentration for 100% inhibition after 24 hours at 37° C. As to the method:
The compounds of Table 1 were tested for fungistatic activity with an assay based on the work of Gordon, Lapa et.al. (18) with the nonpathogenic yeast S. cerevisiae in which ketoconazole is used as control. A semisolid is prepared to which is added serial dilutions of peptide. This antifungal agar is distributed in a well plate, and the S. Cerevisiae inoculum is then added to each well. Both ketokonoazole and H-5 are used as positive controls and buffer is used as a control blank. Minimum inhibitory concentration MIC, i.e. the concentration of the peptide under test which prevents growth, as observed visually, is recorded for each sample so that low values of MIC indicate potent antifungal compounds.
More specifically, stock peptide solutions (600 microliters or 1 ml) were prepared to 10 times the final concentration of the most concentrated test sample in a sodium phosphate buffer (0.01 M0, pH 7.4). Peptide concentrations were determined by UV absorbance at λ=275. Control blanks were also prepared using 1 ml buffer Five serial dilutions were made in sterile culture tubes with buffer to create a range of peptide concentrations. The final volume in each tube was either 300 microliter or 1 ml. Agar medium (2.7 or 4.5 ml) was added to each tube and mixed. Aliquots (1 ml) of each were added to a 24 well plate to give 6 different concentrations of each peptide per plate. […] A stock solution (10 mg/mL DMSO) was diluted 1:49 with buffer. A range of final concentrations of 20 to 0.16 micrograms/ml was tested. In addition, in later analog assays, H-5 was included as a positive peptide control. Histatin 5 was tested in a range from 200 micromolar to 6.3 micromolar. Other analogs were tested at concentrations anywhere from 200 μM down to 0.14 μM ubtil the analog with lowest MIC concentration was identified.
S. cerevisiae cells grown overnight were centrifuged and washed with a 0.85% saline solution, three times. Cell concentration was adjusted to 85% transmission at λ=530 with saline solution. Cells were further diluted 1:19. Inoculant (10 microL) was added to the peptide-containing medium. The cells were incubated on this medium for 24 hours at 37° C. The fungistatic MIC for these compounds was defined as the minimum concentration required to achieve 100% inhibition after 24 hours.
`CC(=O)N1CCN(c2ccc(OCC3COC(Cn4ccnc4)(c4ccc(Cl)cc4Cl)O3)cc2)CC1` (centres unmarked) [Ketoconazole, reference compound] yielded an MIC range of 4.7. As to “Arg His His Cys Trp Lys Arg Lys Phe His Glu Lys His His Cys His Arg Gly Tyr (RHHCWKRKFHEKHHCHRGY; disulfide 4-15 (inferred)) [Db3-67]”, the MIC range was 0.67-1.34. Same read-out and setting: with “Arg His His Cys Tyr Lys Arg Lys Cys His Glu Lys His His Cys His Arg Cys Tyr (RHHCYKRKCHEKHHCHRCY; also: cyclic analogue, ring not given here) [Db2-100]” the figure was 0.63-1.25. For “Arg His His Cys Tyr Lys Arg Lys His His Glu Lys His His Cys His Arg Gly Tyr (RHHCYKRKHHEKHHCHRGY; disulfide 4-15 (inferred)) [Db3-13]”, the MIC range was 2.6-5.1. Still for that read-out and setting: with “Arg His His Cys Tyr Lys Arg Lys Phe His Glu Lys His His Cys His (RHHCYKRKFHEKHHCH; disulfide 4-15 (inferred)) [Db3-25]” the figure was over 5.2. Consider “Arg His His Cys Tyr Lys Arg Lys Phe His Glu Lys His His Cys His Arg (RHHCYKRKFHEKHHCHR; also: cyclic analogue, ring not given here) [Db3-15]”, for which the MIC range is given as 2.6-5.2. Still for that read-out and setting: with “Arg His His Cys Tyr Lys Arg Lys Phe His Glu Lys His His Cys His Arg Gly (RHHCYKRKFHEKHHCHRG; also: cyclic analogue, ring not given here) [Db3-19]” the figure was 1.3-2.6.

“Arg His His Cys Tyr Lys Arg Lys Phe His Glu Lys His His Cys His Arg Gly Tyr [Db3-35] (RHHCYKRKFHEKHHCHRGY; also: cyclic analogue, ring not given here)”: the MIC range was 1.3-2.5. On the same count and under the same terms, with “Arg His His Cys Tyr Lys Arg Lys Phe His Glu Lys His His Cys His Arg Gly Tyr [Db3-53] (RHHCYKRKFHEKHHCHRGY; also: cyclic analogue, ring not given here)” the figure was over 5; with “Arg His His Gly Cys Lys Arg Lys Phe His Glu Lys His His Cys His Arg Gly Tyr (RHHGCKRKFHEKHHCHRGY; disulfide 5-15 (inferred)) [Db2-178]”, 2.5-5.

For the compound “Arg His His Gly Cys Lys Arg Lys Phe His Glu Lys His His Ser Cys Arg Gly Tyr (RHHGCKRKFHEKHHSCRGY; disulfide 5-16 (inferred)) [Db3-11]”, the MIC range is 2.5-5. For “Arg His His Gly Tyr Cys Arg Lys Phe His Glu Lys His His Cys His Arg Gly Tyr (RHHGYCRKFHEKHHCHRGY; disulfide 6-15 (inferred)) [Db2-179]”, the MIC range was 2.5-5. For “Arg His His Gly Tyr Lys Cys Lys Phe His Glu Lys His His Cys His Arg Gly Tyr (RHHGYKCKFHEKHHCHRGY; disulfide 7-15 (inferred)) [Db2-180]”, the MIC range was 1.25-2.5. “RHHCYRKFHEKHHC (cysteine pairing not given here) [Db3-30]” registered an MIC range of over 5.2.

The same test, now with this note: against S. cerevisiae.
As to `N=C(N)NCCC[C@H](NC(=O)[C@H](Cc1c[nH]cn1)NC(=O)[C@@H]1CSSC[C@H](NC(=O)[C@H](Cc2c[nH]cn2)NC(=O)[C@H](Cc2c[nH]cn2)NC(=O)[C@@H](N)CCCNC(=N)N)C(=O)N[C@@H](Cc2ccc(O)cc2)C(=O)N[C@@H](CCCCN)C(=O)N[C@@H](CCCNC(=N)N)C(=O)N[C@@H](CCCCN)C(=O)N[C@@H](Cc2ccccc2)C(=O)N[C@@H](Cc2c[nH]cn2)C(=O)N[C@@H](CCC(=O)O)C(=O)N[C@@H](CCCCN)C(=O)N[C@@H](Cc2c[nH]cn2)C(=O)N[C@@H](Cc2c[nH]cn2)C(=O)N1)C(=O)NCC(=O)N[C@@H](Cc1ccc(O)cc1)C(=O)O` [Db2-121] (H-RHHCYKRKFHEKHHCHRGY-OH; disulfide 4-15; N-terminus assumed), the “times more potent than H-5” value is on record as “approximately 100 times” and the “times more potent than ketoconazole” value is about 10 times.

Still in this test, the particulars now being: fungistatic activity.
RHHKYRKFHEKHHEHRGY [Db3-41] returned an MIC range of 0.55 to 1.1 µM.

Still in this test, the particulars now being: relative to Db2-121.
On to “Arg His His Cys Tyr Lys Arg Lys Phe His Glu Lys His His Cys His Arg (RHHCYKRKFHEKHHCHR; also: cyclic analogue, ring not given here) [Db3-15]”, for which the “activity after additional deletions at the C-terminal” value was “small loss of activity”. Still for that read-out and setting: to “Arg His His Cys Tyr Lys Arg Lys Phe His Glu Lys His His Cys His Arg Gly (RHHCYKRKFHEKHHCHRG; also: cyclic analogue, ring not given here) [Db3-19]” belongs “small loss of activity”.

These data come from US6555650B1, “Cyclic analogs of histatins” (priority 1999, dated 2003).
